Common to all, as to type: cell-based
The test system of test [1] is SA101 S. aureus ATCC29213. The test is described as follows: broth dilution MIC, S. aureus SA101. Conditions: Staphylococcus aureus, ATCC29213, SA101 S. aureus ATCC29213; read-out: MIC. The source says:
(§1) We have collected MIC data for a total of 50 novel macrolides that this platform has produced against over 21 unique strains of B. subtilis, E. coli, S. aureus, S. pneumoniae, and H. influenzae, including several multidrug-resistant strains, with a special focus on macrolide resistant mechanisms (vide supra). Azithromycin was included as a control macrolide. CLSI standard procedures for broth dilution MIC determination were used. […] These genotypes can be constitutive or inducible. The finding that C4-epi (unnatural) isomers of the “azaketolide” macrolide class have enhanced activities relative to C4 natural isomers is very exciting.
Background: In broth dilution the organism is exposed to a series of concentrations in liquid medium.

The subject of another test is A. baumannii strains. The test is described as follows: MIC against A. baumannii strains (Table M8). Conditions: for MIC: Acinetobacter baumannii, BAA747, A. baumannii BAA747-1.
A further test has as its system K. pneumoniae strains. The test is described as follows: MIC against K. pneumoniae strains (Table M8). Conditions: Klebsiella pneumoniae, K. pneumoniae 10031.
In another test the test system is BS1725 B. subtilis ermC. The test is described as follows: broth dilution MIC, B. subtilis BS1725. As to conditions: Bacillus subtilis.
Excerpt: as §1

In a further test the test system is EC882 E. coli imp. The test is described as follows: broth dilution MIC, E. coli EC882. Conditions: Escherichia coli.
Excerpt: as §1

The subject of another test is H. influenzae strains. The test is described as follows: MIC against H. influenzae strains (Table M8). As to conditions: Haemophilus influenzae. The method in brief:
(§2)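 Testing used CLSI standard broth dilution; the lowest inhibitory concentration was taken as the MIC.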

For the next test, the system named is E. coli strains. The test is described as follows: MIC against E. coli strains (Table M7). Conditions: Escherichia coli, ATCC25922, E. coli ATCC 25922. The gist of the method: as §2
Test [2] relates to BS1723 B. subtilis BS168 WT wild type. The test is described as follows: broth dilution MIC, B. subtilis BS1723. As to conditions: Bacillus subtilis.
Excerpt: as §1

The test system of another test is EC107 E. coli ATCC25922. The test is described as follows: broth dilution MIC, E. coli EC107. As to conditions: Escherichia coli, read-out: MIC.
Excerpt: as §1

The test system of a further test is S. aureus strains. The test is described as follows: MIC against S. aureus strains (Table M7). As to conditions: for MIC: Staphylococcus aureus. The method in brief: as §2
Another test relates to EC878 E. coli tolC. The test is described as follows: broth dilution MIC, E. coli EC878. As to conditions: Escherichia coli.
Excerpt: as §1

A further test concerns S. pneumoniae strains. The test is described as follows: MIC against S. pneumoniae strains (Tables M7, M8). Conditions: Streptococcus pneumoniae. The text has this: CLSI standard procedures for broth dilution MIC determination were used. […] These genotypes can be constitutive or inducible.
Another test concerns E. faecalis strains. The test is described as follows: MIC against E. faecalis strains (Table M8). Conditions: Enterococcus faecalis, E. faecalis 29212.
Where [3] appears, read: H. influenzae 49247, read-out: MIC H. influenzae (49247).
Setting [4] is: H. influenzae 49766, read-out: MIC H. influenzae (49766).
The mark [5] stands for this setting: ATCC29213, S. aureus ATCC 29213, read-out: MIC S. aureus (ATCC 29213).
[6] abbreviates: S. aureus 506, read-out: MIC S. aureus (506).
Setting [7] is: S. aureus 1708, read-out: MIC S. aureus (1708).
[8] abbreviates: USA300, S. aureus USA300, read-out: MIC S. aureus (USA300).
Setting [9] is: S. pneumoniae 160, read-out: MIC S. pneumonae (160).
Setting [10] is: S. pneumoniae 1509, read-out: MIC S. pneumoniae (1509).
[11] abbreviates: S. pneumoniae 1533, read-out: MIC S. pneumoniae (1533).
Setting [12] is: S. pneumoniae 1537, read-out: MIC S. pneumoniae (1537).
Where [13] appears, read: S. pneumoniae 49619, read-out: MIC S. pneumoniae (49619).
The mark [14] stands for this setting: BS1723 B. subtilis BS168 WT wild type, read-out: MIC.

In brackets after ≈: the same amount, converted by molar mass. Where two headings read alike, the source gives them in different places.

Regarding `CC[C@H]1OC(=O)[C@H](C)[C@@H](O[C@H]2C[C@@](C)(OC)[C@@H](O)[C@H](C)O2)[C@H](C)[C@@H](O[C@@H]2O[C@H](C)C[C@H](N(C)C)[C@H]2O)[C@](C)(O)C[C@@H](C)C(=O)[C@H](C)[C@@H](O)[C@]1(C)O` [Erythromycin, erythromycin, reference compound], the MIC is 0.5 µg/mL (≈ 0.681 µM) in test [1]; 32 µg/mL (≈ 43.6 µM) against A. baumannii strains; 8 µg/mL (≈ 10.9 µM) in the test with K. pneumoniae strains; > 32 µg/mL against BS1725 B. subtilis ermC (BS1725 B. subtilis ermC (+ery)); > 32 µg/mL with BS1725 B. subtilis ermC (BS1725 B. subtilis ermC (−ery)); 2 µg/mL (≈ 2.73 µM) with EC882 E. coli imp. In addition, the MIC in the test on H. influenzae strains (setting [3]) is 2 µg/mL (≈ 2.73 µM); in the test with H. influenzae strains (setting [4]), 8 µg/mL (≈ 10.9 µM); with E. coli strains, > 32 µg/mL; in test [2], 0.125 µg/mL (≈ 0.17 µM); in the test with EC107 E. coli ATCC25922, > 32 µg/mL; with S. aureus strains (setting [5]), 0.5 µg/mL (≈ 0.681 µM). Also, the MIC in the test on S. aureus strains (S. aureus 183, read-out: MIC S. aureus (183)) is > 32 µg/mL; in the test on S. aureus strains (setting [6]) it was > 32 µg/mL; in the test on S. aureus strains (setting [7]) it was > 32 µg/mL; in the test with S. aureus strains (setting [8]), > 32 µg/mL; with EC878 E. coli tolC, 2 µg/mL (≈ 2.73 µM); with S. pneumoniae strains (setting [9]), 2 µg/mL (≈ 2.73 µM). Further, the MIC in the test on S. pneumoniae strains (setting [10]) is > 32 µg/mL; in the test on S. pneumoniae strains (setting [11]) it was > 32 µg/mL; in the test with S. pneumoniae strains (setting [12]) it was > 32 µg/mL; in the test with S. pneumoniae strains (setting [13]), ≤ 0.0625 µg/mL; against E. faecalis strains, 2 µg/mL (≈ 2.73 µM). For the same compound, the “MIC A. baumannii (BAA747-1)” value with A. baumannii strains (A. baumannii BAA747-1) was >32 µg/mL. The “MIC S. aureus (ATCC 29213)” value in the test on S. aureus strains (S. aureus ATCC 29213) amounted to 0.25 µg/mL (≈ 0.341 µM).
Consider `CC[C@H]1OC(=O)[C@H](C)C(=O)C[C@@H](O[C@@H]2OC(C)CC(N(C)C)C2O)[C@](C)(OC)C[C@@H](C)CN[C@H](C)[C@H]2N(CCCCn3cc(-c4cccc(N)c4)nn3)C(=O)O[C@]12C` (some centres unmarked) [FSM-10781], for which the MIC in test [1] was > 32 µg/mL; against A. baumannii strains, 32 µg/mL (≈ 39.3 µM); with K. pneumoniae strains it was 8 µg/mL (≈ 9.83 µM); in the test with BS1725 B. subtilis ermC (BS1725 B. subtilis ermC (+ery)) it was > 32 µg/mL; against BS1725 B. subtilis ermC (BS1725 B. subtilis ermC (−ery)) it was > 32 µg/mL; against EC882 E. coli imp, 0.25 µg/mL (≈ 0.307 µM). Moreover, the MIC was 1 µg/mL (≈ 1.23 µM) in the test on H. influenzae strains (setting [3]); 8 µg/mL (≈ 9.83 µM) with H. influenzae strains (setting [4]); 32 µg/mL (≈ 39.3 µM) with E. coli strains; > 32 µg/mL in [2] (setting [14]); 16 µg/mL (≈ 19.7 µM) with EC107 E. coli ATCC25922; > 32 µg/mL with S. aureus strains (setting [5]). In addition, the MIC with S. aureus strains (setting [6]) was > 32 µg/mL; in the test with S. aureus strains (setting [7]), > 32 µg/mL; in the test on S. aureus strains (setting [8]), > 32 µg/mL; with EC878 E. coli tolC, 1 µg/mL (≈ 1.23 µM); in the test with S. pneumoniae strains (setting [9]), 2 µg/mL (≈ 2.46 µM); with S. pneumoniae strains (setting [10]) it was > 32 µg/mL. For the same compound, the MIC in the test on S. pneumoniae strains (setting [11]) was > 32 µg/mL; in the test on S. pneumoniae strains (setting [12]) it was > 32 µg/mL; with S. pneumoniae strains (setting [13]), 8 µg/mL (≈ 9.83 µM); in the test with E. faecalis strains, 8 µg/mL (≈ 9.83 µM).
Turning to `CC[C@H]1OC(=O)[C@H](C)C(=O)[C@H](C)[C@@H](O[C@@H]2OC(C)CC(N(C)C)C2O)[C@](C)(OC)C[C@@H](C)CN[C@H](C)[C@H]2N(CCCCn3cc(-c4cccnn4)nn3)C(=O)O[C@]12C` (some centres unmarked) [FSM-20710], the MIC worked out at 2 µg/mL (≈ 2.45 µM) in test [1]; 16 µg/mL (≈ 19.6 µM) in the test with A. baumannii strains; 4 µg/mL (≈ 4.91 µM) against K. pneumoniae strains; 32 µg/mL (≈ 39.3 µM) against BS1725 B. subtilis ermC (BS1725 B. subtilis ermC (+ery)); 0.0625 µg/mL (≈ 0.0767 µM) in the test on EC882 E. coli imp; 0.5 µg/mL (≈ 0.613 µM) in the test with H. influenzae strains (setting [3]). Also, the MIC with H. influenzae strains (setting [4]) was 2 µg/mL (≈ 2.45 µM); with E. coli strains, 8 µg/mL (≈ 9.82 µM); in test [2] (setting [14]), 2 µg/mL (≈ 2.45 µM); in the test on EC107 E. coli ATCC25922, 8 µg/mL (≈ 9.82 µM); in the test with S. aureus strains (setting [5]), 2 µg/mL (≈ 2.45 µM); with S. aureus strains (setting [6]), > 32 µg/mL. Further, the MIC is 2 µg/mL (≈ 2.45 µM) in the test on S. aureus strains (setting [7]); 4 µg/mL (≈ 4.91 µM) in the test on S. aureus strains (setting [8]); 1 µg/mL (≈ 1.23 µM) against EC878 E. coli tolC; 0.5 µg/mL (≈ 0.613 µM) with S. pneumoniae strains (setting [9]); 16 µg/mL (≈ 19.6 µM) in the test with S. pneumoniae strains (setting [10]); > 32 µg/mL with S. pneumoniae strains (setting [11]). In addition, the results for the MIC in the test with S. pneumoniae strains (setting [12]), in the test on S. pneumoniae strains (setting [13]) and with E. faecalis strains were > 32 µg/mL, 0.5 µg/mL (≈ 0.613 µM) and 0.5 µg/mL (≈ 0.613 µM), respectively.

Values taken from patent publication US9982005B2, “Macrolides and methods of their preparation and use” (President and Fellows of Harvard College, priority 2013, dated 2018).
